Test results: BigSolDB 2.1

O=C(OCC1c2ccccc2-c2ccccc21)ON1C(=O)CCC1=O
solubility (mole fraction)
Settings	283.15 K	288.15 K	293.15 K	298.15 K	303.15 K	308.15 K	313.15 K	318.15 K	323.15 K	328.15 K
in DMF	0.00369	0.00533	0.00719	0.00964	0.0132	0.0177	0.023	0.0298	0.0387	0.0499
in DMSO	–	–	0.00499	0.00641	0.0084	0.0107	0.0134	0.0167	0.0208	0.0257
in ethanol	0.000477	0.000571	0.000687	0.000824	0.000979	0.00115	0.00134	0.00155	0.00177	0.00205
in ethylene glycol	0.000151	0.00019	0.000241	0.000314	0.000396	0.00049	0.000611	0.000748	0.00092	0.00111
in water	–	–	5.77e-06	7.38e-06	9.44e-06	1.19e-05	1.49e-05	1.84e-05	2.28e-05	2.78e-05
